Values joined by “and” are separate entries in the source; they are usually repeats but may differ in a detail not shown here. Identical values can stand only once.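 Protocol summary: plate cells (96-well), add compound at 5 concentrations, incubate 48 h, interpolate endpoints linearly. GI50 is the concentration that inhibits growth by half. TGI marks complete inhibition of growth.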
How the values were obtained:
Test in all cases: NCI tumour cell line growth inhibition, 48 h
[1] = tested on: MDA-MB-468 breast
[2] = tested on: 786-0 renal
[3] = tested on: A498 renal
[4] = tested on: A549 NSCLC
[5] = tested on: ACHN renal
[6] = tested on: BT-549 breast
[7] = tested on: CAKI-1 renal
[8] = tested on: CCRF-CEM leukemia
[9] = tested on: COLO 205 colon
[10] = tested on: DU-145 prostate
[11] = tested on: EKVX NSCLC
[12] = tested on: HCC-2998 colon
[13] = tested on: HCT-116 colon
[14] = tested on: HCT-15 colon
[15] = tested on: HL-60(TB) leukemia
[16] = tested on: HOP-62 NSCLC
[17] = tested on: HOP-92 NSCLC
[18] = tested on: HS 578T breast
[19] = tested on: HT29 colon
[20] = tested on: IGROV1 ovarian
[21] = tested on: K-562 leukemia
[22] = tested on: KM12 colon
[23] = tested on: LOX IMVI melanoma
[24] = tested on: M14 melanoma
[25] = tested on: MALME-3M melanoma
[26] = tested on: MCF7 breast
[27] = tested on: MDA-MB-231 breast
[28] = tested on: MDA-MB-435
[29] = tested on: MOLT-4 leukemia
[30] = tested on: NCI-H226 lung
[31] = tested on: NCI-H23 lung
[32] = tested on: NCI-H460 lung
[33] = tested on: NCI-H522 lung
[34] = tested on: NCI/ADR-RES ovarian
[35] = tested on: OVCAR-3 ovarian
[36] = tested on: OVCAR-4 ovarian
[37] = tested on: OVCAR-5 ovarian
[38] = tested on: OVCAR-8 ovarian
[39] = tested on: PC-3 prostate
[40] = tested on: RPMI-8226 leukemia
[41] = tested on: RXF 393 renal
[42] = tested on: SF-268 CNS
[43] = tested on: SF-295 CNS
[44] = tested on: SF-539 CNS
[45] = tested on: SK-MEL-2 melanoma
[46] = tested on: SK-MEL-28 melanoma
[47] = tested on: SK-MEL-5 melanoma
[48] = tested on: SK-OV-3 ovarian
[49] = tested on: SN12C renal
[50] = tested on: SNB-19 CNS
[51] = tested on: SNB-75 CNS
[52] = tested on: SR leukemia
[53] = tested on: SW-620 colon
[54] = tested on: T-47D breast
[55] = tested on: TK-10 renal
[56] = tested on: U251 CNS
[57] = tested on: UACC-257 melanoma
[58] = tested on: UACC-62 melanoma
[59] = tested on: UO-31 renal

## OCc1ccc(N2CCOCC2)cc1Cl
[1]
  GI50: 0.732 µM
  TGI: 3.1 µM

## CC(C)(C)c1ccc(C(=O)Nc2sc3c(c2C(N)=O)CCC(O)C3)cc1 (stereo not given)
[1]
  GI50: 3.01 µM
  TGI: 12.6 µM

## COc1ccc(F)c(F)c1C(=O)c1cnc(NC2CCN(S(C)(=O)=O)CC2)nc1N
[1]
  GI50: 1.37 µM and 0.687 µM
  TGI: 3.54 µM and 2.7 µM

## CC(C)[O-].CC(C)[O-].CN(CCN(C)Cc1cc(F)cc(F)c1[O-])Cc1cc(F)cc(F)c1[O-].[Ti+4]
[1]
  GI50: 0.542 µM
  TGI: 2.88 µM

## COc1cc2nc(-c3ccc(C(F)(F)F)cc3)cc(OCCCN3CCCC3)c2cc1OC
[1]
  GI50: 1.09 µM
  TGI: 3.72 µM

## CCN(CC)c1ccc(/C=C/C2=[N+](C)c3ccccc3C2(C)C)c(C)c1
[1]
  GI50: < 0.019 µM
  TGI: 0.181 µM

## COc1ccc(NC(=O)Cn2c(/C=C/c3cccc(Br)c3)nc3ccccc3c2=O)cc1
[2]
  GI50: 4.9 µM
  TGI: 14.8 µM
[3]
  GI50: 9.71 µM
  TGI: 32.5 µM
[4]
  GI50: 11.4 µM
  TGI: > 36 µM
[5]
  GI50: 1.75 µM
  TGI: 12.2 µM
[6]
  GI50: 3.62 µM
  TGI: > 36 µM
[7]
  GI50: 14 µM
  TGI: > 36 µM
[8]
  GI50: > 36 µM
  TGI: > 36 µM
[9]
  GI50: > 36 µM
  TGI: > 36 µM
[10]
  GI50: 13.5 µM
  TGI: > 36 µM
[11]
  GI50: > 36 µM
  TGI: > 36 µM
[12]
  GI50: > 36 µM
  TGI: > 36 µM
[13]
  GI50: 5.67 µM
  TGI: > 36 µM
[14]
  GI50: > 36 µM
  TGI: > 36 µM
[15]
  GI50: > 36 µM
  TGI: > 36 µM
[16]
  GI50: 6.47 µM
  TGI: 21 µM
[17]
  GI50: 8.66 µM
  TGI: 32.6 µM
[18]
  GI50: 2.73 µM
  TGI: 30.8 µM
[19]
  GI50: > 36 µM
  TGI: > 36 µM
[20]
  GI50: > 36 µM
  TGI: > 36 µM
[21]
  GI50: > 36 µM
  TGI: > 36 µM
[22]
  GI50: > 36 µM
  TGI: > 36 µM
[23]
  GI50: 3.02 µM
  TGI: > 36 µM
[24]
  GI50: 31.8 µM
  TGI: > 36 µM
[25]
  GI50: 6.56 µM
  TGI: 27 µM
[26]
  GI50: 8.56 µM
  TGI: > 36 µM
[27]
  GI50: 1.93 µM
  TGI: 8.8 µM
[28]
  GI50: > 36 µM
  TGI: > 36 µM
[1]
  GI50: 6.25 µM
  TGI: > 36 µM
[29]
  GI50: > 36 µM
  TGI: > 36 µM
[30]
  GI50: 1.69 µM
  TGI: 9.64 µM
[31]
  GI50: 10.5 µM
  TGI: > 36 µM
[32]
  GI50: 15.7 µM
  TGI: > 36 µM
[33]
  GI50: 17.6 µM
  TGI: > 36 µM
[34]
  GI50: 7.1 µM
  TGI: > 36 µM
[35]
  GI50: 10.6 µM
  TGI: > 36 µM
[36]
  GI50: 2.17 µM
  TGI: 9.94 µM
[37]
  GI50: 15.6 µM
  TGI: > 36 µM
[38]
  GI50: 10.5 µM
  TGI: > 36 µM
[39]
  GI50: > 36 µM
  TGI: > 36 µM
[40]
  GI50: > 36 µM
  TGI: > 36 µM
[41]
  GI50: 4.39 µM
  TGI: 17.6 µM
[42]
  GI50: 13.9 µM
  TGI: > 36 µM
[43]
  GI50: 6.79 µM
  TGI: > 36 µM
[44]
  GI50: 2.94 µM
  TGI: 8.06 µM
[45]
  GI50: > 36 µM
  TGI: > 36 µM
[46]
  GI50: > 36 µM
  TGI: > 36 µM
[47]
  GI50: > 36 µM
  TGI: > 36 µM
[48]
  GI50: 7.25 µM
  TGI: 27.5 µM
[49]
  GI50: 14.8 µM
  TGI: > 36 µM
[50]
  GI50: 11.4 µM
  TGI: > 36 µM
[51]
  GI50: 0.801 µM
  TGI: 3.27 µM
[52]
  GI50: 1.06 µM
  TGI: > 36 µM
[53]
  GI50: > 36 µM
  TGI: > 36 µM
[54]
  GI50: > 36 µM
  TGI: > 36 µM
[55]
  GI50: 5.4 µM
  TGI: 13.4 µM
[56]
  GI50: 4.68 µM
  TGI: 13.5 µM
[57]
  GI50: > 36 µM
  TGI: > 36 µM
[58]
  GI50: > 36 µM
  TGI: > 36 µM
[59]
  GI50: 4.41 µM
  TGI: 15.4 µM
